Reference: US20120329787A1, “FUNGICIDAL PYRANONES AND OXAZINONES” (E.I. DU PONT DE NEMOURS AND COMPANY, priority 2011, published 2012)
Marks after values point to notes of the source that are not given here.

Columns and labels:
Format in all cases: in vivo
[1] = test system: Botrytis cinerea; experiment: Test A: tomato Botrytis, spray on tomato seedlings the day before inoculation; conditions: for pest or weed control at 200 ppm: Botrytis cinerea, 120 h, read-out: Test A rating (100 = 100% disease control, 0 = no disease control)
Text: General protocol for preparing test suspensions for Tests A-I: the test compounds were first dissolved in acetone in an amount equal to 3% of the final volume and then suspended at the desired concentration (in ppm) in acetone and purified water (50/50 mix by volume) containing 250 ppm of the surfactant Trem® 014 (polyhydric alcohol esters). The resulting test suspensions were then used in Tests A-I. Spraying a 200 ppm test suspension to the point of run-off on the test plants was the equivalent of a rate of 500 g/ha. […] (An asterisk “*” next to the rating value indicates a 40 ppm test suspension was used.) The test suspension was sprayed to the point of run-off on tomato seedlings. The following day, the seedlings were inoculated with a spore suspension of Botrytis cinerea (the causal agent of tomato Botrytis) and incubated in a saturated atmosphere at 20° C. for 48 h, and then moved to a growth chamber at 24° C. for 3 additional days, after which time visual disease ratings were made. […] A dash (-) indicates no test results. All results are for 200 ppm except where followed by an asterisk “*”, which indicates a 40 ppm.

[2] = test system: Alternaria solani; experiment: Test B: tomato early blight, spray on tomato seedlings the day before inoculation; conditions: for pest or weed control at 200 ppm: Alternaria solani, 168 h, read-out: Test B rating (100 = 100% disease control, 0 = no disease control)
Text: General protocol for preparing test suspensions for Tests A-I: the test compounds were first dissolved in acetone in an amount equal to 3% of the final volume and then suspended at the desired concentration (in ppm) in acetone and purified water (50/50 mix by volume) containing 250 ppm of the surfactant Trem® 014 (polyhydric alcohol esters). The resulting test suspensions were then used in Tests A-I. Spraying a 200 ppm test suspension to the point of run-off on the test plants was the equivalent of a rate of 500 g/ha. […] (An asterisk “*” next to the rating value indicates a 40 ppm test suspension was used.) The test suspension was sprayed to the point of run-off on tomato seedlings. The following day, the seedlings were inoculated with a spore suspension of Alternaria solani (the causal agent of tomato early blight) and incubated in a saturated atmosphere at 27° C. for 48 h, and then moved to a growth chamber at 20° C. for 5 days, after which time visual disease ratings were made. […] A dash (-) indicates no test results. All results are for 200 ppm except where followed by an asterisk “*”, which indicates a 40 ppm.

[3] = test system: Septoria nodorum; experiment: Test E: Septoria glume blotch, spray on wheat seedlings the day before inoculation
Text: General protocol for preparing test suspensions for Tests A-I: the test compounds were first dissolved in acetone in an amount equal to 3% of the final volume and then suspended at the desired concentration (in ppm) in acetone and purified water (50/50 mix by volume) containing 250 ppm of the surfactant Trem® 014 (polyhydric alcohol esters). The resulting test suspensions were then used in Tests A-I. Spraying a 200 ppm test suspension to the point of run-off on the test plants was the equivalent of a rate of 500 g/ha. […] (An asterisk “*” next to the rating value indicates a 40 ppm test suspension was used.) The test suspension was sprayed to the point of run-off on wheat seedlings. […] A dash (-) indicates no test results. All results are for 200 ppm except where followed by an asterisk “*”, which indicates a 40 ppm.

[4] = test system: Septoria tritici; experiment: Test F: wheat leaf blotch, spray on wheat seedlings the day before inoculation; conditions: for pest or weed control at 200 ppm: Zymoseptoria tritici, 504 h, read-out: Test F rating (100 = 100% disease control, 0 = no disease control)
Text: General protocol for preparing test suspensions for Tests A-I: the test compounds were first dissolved in acetone in an amount equal to 3% of the final volume and then suspended at the desired concentration (in ppm) in acetone and purified water (50/50 mix by volume) containing 250 ppm of the surfactant Trem® 014 (polyhydric alcohol esters). The resulting test suspensions were then used in Tests A-I. Spraying a 200 ppm test suspension to the point of run-off on the test plants was the equivalent of a rate of 500 g/ha. […] (An asterisk “*” next to the rating value indicates a 40 ppm test suspension was used.) The test suspension was sprayed to the point of run-off on wheat seedlings. The following day, the seedlings were inoculated with a spore suspension of Septoria tritici (the causal agent of wheat leaf blotch) and incubated in a saturated atmosphere at 24° C. for 48 h, and then the seedlings were moved to a growth chamber at 20° C. for 19 additional days, after which time visual disease ratings were made. […] A dash (-) indicates no test results. All results are for 200 ppm except where followed by an asterisk “*”, which indicates a 40 ppm.

[5] = test system: Puccinia recondita f. sp. tritici; experiment: Test G: wheat leaf rust, spray on wheat seedlings after inoculation (curative); conditions: sprayed after inoculation; for pest or weed control at 200 ppm: Puccinia recondita, 96 h, read-out: Test G rating (100 = 100% disease control, 0 = no disease control)
Text: General protocol for preparing test suspensions for Tests A-I: the test compounds were first dissolved in acetone in an amount equal to 3% of the final volume and then suspended at the desired concentration (in ppm) in acetone and purified water (50/50 mix by volume) containing 250 ppm of the surfactant Trem® 014 (polyhydric alcohol esters). The resulting test suspensions were then used in Tests A-I. Spraying a 200 ppm test suspension to the point of run-off on the test plants was the equivalent of a rate of 500 g/ha. […] (An asterisk “*” next to the rating value indicates a 40 ppm test suspension was used.) Wheat seedlings were inoculated with a spore suspension of Puccinia recondita f. sp. tritici (the causal agent of wheat leaf rust) and incubated in a saturated atmosphere at 20° C. for 24 h, and then moved to a growth chamber at 20° C. for 2 days. At the end of this time, the test suspension was sprayed to the point of run-off, and then the seedlings were moved to a growth chamber at 20° C. for 4 days after which time visual disease ratings were made. […] A dash (-) indicates no test results. All results are for 200 ppm except where followed by an asterisk “*”, which indicates a 40 ppm.

[6] = test system: Puccinia recondita f. sp. tritici; experiment: Test H: wheat leaf rust, spray on wheat seedlings the day before inoculation; conditions: sprayed before inoculation; for pest or weed control at 200 ppm: Puccinia recondita, 168 h, read-out: Test H rating (100 = 100% disease control, 0 = no disease control)
Text: General protocol for preparing test suspensions for Tests A-I: the test compounds were first dissolved in acetone in an amount equal to 3% of the final volume and then suspended at the desired concentration (in ppm) in acetone and purified water (50/50 mix by volume) containing 250 ppm of the surfactant Trem® 014 (polyhydric alcohol esters). The resulting test suspensions were then used in Tests A-I. Spraying a 200 ppm test suspension to the point of run-off on the test plants was the equivalent of a rate of 500 g/ha. […] (An asterisk “*” next to the rating value indicates a 40 ppm test suspension was used.) The test suspension was sprayed to the point of run-off on wheat seedlings. The following day, the seedlings were inoculated with a spore suspension of Puccinia recondita f. sp. tritici (the causal agent of wheat leaf rust) and incubated in a saturated atmosphere at 20° C. for 24 h, and then moved to a growth chamber at 20° C. for 6 days, after which time visual disease ratings were made Results for Tests A-I are given in Table A. […] A dash (-) indicates no test results. All results are for 200 ppm except where followed by an asterisk “*”, which indicates a 40 ppm.

[7] = test system: Erysiphe graminis f. sp. tritici; experiment: Test I: wheat powdery mildew, spray on wheat seedlings the day before inoculation; conditions: for pest or weed control at 200 ppm: Blumeria graminis, 168 h, read-out: Test I rating (100 = 100% disease control, 0 = no disease control)
Text: General protocol for preparing test suspensions for Tests A-I: the test compounds were first dissolved in acetone in an amount equal to 3% of the final volume and then suspended at the desired concentration (in ppm) in acetone and purified water (50/50 mix by volume) containing 250 ppm of the surfactant Trem® 014 (polyhydric alcohol esters). The resulting test suspensions were then used in Tests A-I. Spraying a 200 ppm test suspension to the point of run-off on the test plants was the equivalent of a rate of 500 g/ha. […] (An asterisk “*” next to the rating value indicates a 40 ppm test suspension was used.) The test suspension was sprayed to the point of run-off on wheat seedlings. The following day, the seedlings were inoculated with a spore dust of Erysiphe graminis f. sp. tritici, (the causal agent of wheat powdery mildew) and incubated in a growth chamber at 20° C. for 7 days, after which time visual disease ratings were made. […] A dash (-) indicates no test results. All results are for 200 ppm except where followed by an asterisk “*”, which indicates a 40 ppm.

[8] = Parastagonospora nodorum, 264 h, 200 ppm test suspension, read-out: Test E rating (100 = 100% disease control, 0 = no disease control)
[9] = 40 ppm test suspension (asterisk)

SMILES	pest or weed control at 200 ppm ([1]; 200 ppm test suspension)	pest or weed control at 200 ppm ([2]; 200 ppm test suspension)	pest or weed control at 200 ppm [3, 8]	pest or weed control at 200 ppm ([4]; 200 ppm test suspension)	pest or weed control at 200 ppm ([5]; 200 ppm test suspension)	pest or weed control at 200 ppm ([6]; 200 ppm test suspension)	pest or weed control at 200 ppm ([7]; 200 ppm test suspension)	Test A rating (100 = 100% disease control, 0 = no disease control) ([1]; 200 ppm test suspension)	Test B rating (100 = 100% disease control, 0 = no disease control) ([2]; 200 ppm test suspension)	Test E rating (100 = 100% disease control, 0 = no disease control) ([3]; 200 ppm test suspension)	Test F rating (100 = 100% disease control, 0 = no disease control) ([4]; 200 ppm test suspension)	Test G rating (100 = 100% disease control, 0 = no disease control) ([5]; 200 ppm test suspension)	Test H rating (100 = 100% disease control, 0 = no disease control) ([6]; 200 ppm test suspension)	Test I rating (100 = 100% disease control, 0 = no disease control) ([7]; 200 ppm test suspension)	further results
COc1cc(OC)cc(-c2c(-c3c(F)cc(F)cc3F)c(C)oc(=O)c2C)c1 [Compound 55, 4-(3,5-dimethoxyphenyl)-3,6-dimethyl-5-(2,4,6-trifluorophenyl)-2H-pyran-2-one]	77%	100%	99%	100%	100%	100%	100%								
COc1cc(OC)cc(-c2c(C)oc(=O)c(C)c2-c2ccc(F)cc2F)c1 [Compound 42, 4-(2,4-difluorophenyl)-5-(3,5-dimethoxyphenyl)-3,6-dimethyl-2H-pyran-2-one]	98%	0%	0%	100%	0%	100%	99%								
COc1cc(OC)cc(-c2c(-c3ccc(F)cc3F)c(C)oc(=O)c2-c2ccccc2F)c1 [Compound 33, 5-(2,4-difluorophenyl)-4-(3,5-dimethoxyphenyl)-3-(2-fluorophenyl)-6-methyl-2H-pyran-2-one]	99%	100%		98%	99%	100%	76%								pest or weed control at 40 ppm ([3]; Parastagonospora nodorum, 264 h, 40 ppm test suspension (asterisk), read-out: Test E rating (100 = 100% disease control, 0 = no disease control)): 99%
Cc1oc(=O)c(-c2ccccc2)c(-c2ccccc2Cl)c1-c1ccccc1F [Compound 30]															Test A rating (100 = 100% disease control, 0 = no disease control) [1, 9]: 99* %; Test B rating (100 = 100% disease control, 0 = no disease control) [2, 9]: 0* %; Test E rating (100 = 100% disease control, 0 = no disease control) [3, 9]: 0* %; Test F rating (100 = 100% disease control, 0 = no disease control) [4, 9]: 94* %; Test G rating (100 = 100% disease control, 0 = no disease control) [5, 9]: 0* %; Test H rating (100 = 100% disease control, 0 = no disease control) [6, 9]: 91* %; Test I rating (100 = 100% disease control, 0 = no disease control) [7, 9]: 0* %
COc1cc(F)c(-c2c(-c3cc(OC)cc(OC)c3Cl)c(C)oc(=O)c2C)c(F)c1 [Compound 49]								100%	100%	99%	100%	100%	100%	99%	
COc1cc(OC)cc(-c2c(-c3c(F)cccc3F)c(C)oc(=O)c2C)c1 [Compound 51]								100%	0%	0%	100%	75%	100%	96%	
COc1cc(OC)c(Cl)c(-c2c(-c3ccc(F)cc3Cl)c(C)oc(=O)c2C)c1 [Compound 54, 4-(2-chloro-3,5-dimethoxyphenyl)-5-(2-chloro-4-fluorophenyl)-3,6-dimethyl-2H-pyran-2-one]	100%	96%	100%	100%	99%	100%	100%								
COc1cc(OC)cc(-c2c(-c3ccc(F)cc3F)c(C)oc(=O)c2-c2ccccc2)c1 [Compound 27]								98%	100%	99%	99%	93%	100%	82%	
